Literature values as cited in patent publication US20010041741A1, “Composition for improvement of cellular nutrition and mitochondrial energetics” (priority 1997, published 2001).
Where two headings read alike, the source gives them in different places. Each block holds one compound with its values, some of them ahead of it.

Columns and labels:
[1] = test system: animals and patients with heart failure or myocardial ischemia; details: L-carnitine 3-5 grams, proprionyl-1-carnitine 1.5-3.0 grams
[2] = not given; remark: listed apart in the source
[3] = test system: patients with heart failure; details: creatine supplement
[4] = test system: patients suffering from congestive heart failure; details: oral dose of 1 gram three times per day
[5] = test system: in-patients with heart failure and on long-term furosemide therapy

Time of peak plasma concentration (following oral administration): 3 h | T½ of plasma decay (following oral administration): 3 to 4 h | Bioavailability (oral): 5-20%
SMILES: C[N+](C)(C)C[C@H](O)CC(=O)[O-] [L-carnitine, 3-hydroxy-4-N-trimethylaminobutyric acid]
Hemodynamics [1]: significant hemodynamic improvement | Tolerance / adverse effects (in vivo): well tolerated and no adverse effects have been described

Increase of mean steady state level in plasma ([2]; after 4 days of dosing at 100 mg 3 times daily): 4-7 fold | Liver enzymes (LDH, SGOT) ([2]; doses of 300 mg/day): asymptomatic elevations | T½ of plasma decay ([2]; oral): 34 h | Time of plasma level peak ([2]; oral absorption): 5 to 10 h | Share of an oral dose taken up by the myocardium ([2]; oral, large hepatic first pass effect): 2-5%
SMILES: COC1=C(OC)C(=O)C(C/C=C(\C)CC/C=C(\C)CC/C=C(\C)CC/C=C(\C)CC/C=C(\C)CC/C=C(\C)CC/C=C(\C)CC/C=C(\C)CC/C=C(\C)CCC=C(C)C)=C(C)C1=O [Ubiquinone, 2,3 dimethoxy-5 methyl-6-decaprenyl benzoquinone]
Side effects ([2]; in vivo): virtually absent

SMILES: CN(CC(=O)O)C(=N)N [creatine, Creatine]
Cardiac ejection fraction [3]: did not increase | Skeletal muscle creatine phosphate, muscle strength and endurance [3]: significantly increased

SMILES: CCC(=O)O[C@H](CC(=O)[O-])C[N+](C)(C)C [proprionyl-1-carnitine, Proprionyl-1-carnitine]
Hemodynamics [1]: significant hemodynamic improvement

SMILES: NCCS(=O)(=O)O [taurine, 2-aminoethanesulfonic acid]
Hemodynamic state and functional capacity [4]: improve both hemodynamic state and functional capacity | Tolerance [4]: extremely well tolerated

SMILES: Cc1ncc(C[n+]2csc(CCO)c2C)c(N)n1 [thiamine, Thiamine]
Mean left ventricular ejection fraction ([5]; after one week, 200 mg intravenous thiamine): increased significantly | Increase of left ventricular ejection fraction ([5]; after six weeks of oral thiamine supplementation, 200 mg/day): 22% | Diuresis, excretion of sodium and water ([5]; within two days of thiamine supplementation, versus placebo): significant diuresis with increased excretion of sodium and water
